In patent US20200281202A1 (priority 2017, published 2020):

Tested on: Phytophthora infestans
Experiment: microbe, parasite or virus in culture
Type: cell-based
Details: for inhibition of growth at 30 ppm: Phytophthora infestans, 168 h, read-out: control (radial growth) compared to the untreated check; for control (radial growth) compared to the untreated check: 30 ppm in Rye Agar medium, seven days at 18° C.

Compound	inhibition of growth at 30 ppm	control (radial growth) compared to the untreated check
Cn1ccc(OCC(=O)N2CCC(c3nc(C4=NOC(c5c(F)cccc5F)C4)cs3)CC2)n1 (stereo not shown) [Compound 1, 1-(4-(4-(5-(2,6-difluorophenyl)-4,5-dihydroisoxazol-3-yl)thiazol-2-yl)piperidin-1-yl)-2-((1-methyl-1H-pyrazol-3-yl)oxy)ethan-1-one]	70%	
Cn1nc(C(F)(F)F)cc1OCC(=O)N1CCC(c2nc(C3=NOC(c4c(Cl)cccc4Cl)C3)cs2)CC1 (stereo not shown) [Compound 2]		70%
Cn1nc(C(F)(F)F)cc1OCC(=O)N1CCC(c2nc(C3=NOC(c4c(F)cccc4F)C3)cs2)CC1 (stereo not shown) [Compound 3, 1-(4-(4-(5-(2,6-difluorophenyl)-4,5-dihydroisoxazol-3-yl)thiazol-2-yl)piperidin-1-yl)-2-((1-methyl-3-(trifluoromethyl)-1H-pyrazol-5-yl)oxy) ethan-1-one]	70%	
Cn1nc(C(F)(F)F)cc1OCC(=O)N1CCC(c2nc(C3=NOC(c4c(Cl)cccc4OS(C)(=O)=O)C3)cs2)CC1 (stereo not shown) [Compound 4, 3-chloro-2-(3-(2-(1-(2-((1-methyl-3-(trifluoromethyl)-1H-pyrazol-5-yl)oxy)acetyl)piperidin-4-yl)thiazol-4-yl)-4,5-dihydroisoxazol-5-yl)phenyl methanesulfonate]	70%	
Cn1ccc(OCC(=O)N2CCC(c3nc(C4=NOC(c5c(Cl)cccc5OS(C)(=O)=O)C4)cs3)CC2)n1 (stereo not shown) [Compound 5, 3-chloro-2-(3-(2-(1-(2-((1-methyl-1H-pyrazol-3-yl)oxy)acetyl)piperidin-4-yl)thiazol-4-yl)-4,5-dihydroisoxazol-5-yl)phenyl methanesulfonate]	70%	
Cn1nc(OCC(=O)N2CCC(c3nc(C4=NOC(c5c(F)cccc5F)C4)cs3)CC2)cc1C(F)F (stereo not shown) [Compound 9]	70%	
Cn1nc(OCC(=O)N2CCC(c3nc(C4=NOC(c5c(Cl)cccc5OS(C)(=O)=O)C4)cs3)CC2)cc1C(F)(F)F (stereo not shown) [Compound 19]		70%
Cn1nc(OCC(=O)N2CCC(c3nc(C4=NOC(c5c(F)cccc5F)C4)cs3)CC2)cc1C(F)(F)F (stereo not shown) [Compound 20, 1-(4-(4-(5-(2,6-difluorophenyl)-4,5-dihydroisoxazol-3-yl)thiazol-2-yl)piperidin-1-yl)-2-((1-methyl-5-(trifluoromethyl)-1H-pyrazol-3-yl)oxy) ethan-1-one]	70%	
O=C(COc1cc(C(F)(F)F)ccn1)N1CCC(c2nc(C3=NOC(c4c(F)cccc4F)C3)cs2)CC1 (stereo not shown) [Compound 43]	70%	
CS(=O)(=O)Oc1cccc(Cl)c1C1CC(c2csc(C3CCN(C(=O)COc4cc(C(F)(F)F)ccn4)CC3)n2)=NO1 (stereo not shown) [Compound 46, 3-chloro-2-(3-(2-(1-(2-((4-(trifluoromethyl)pyridin-2-yl)oxy)acetyl)piperidin-4-yl)thiazol-4-yl)-4,5-dihydroisoxazol-5-yl)phenyl methanesulfonate]	70%	
O=C(COc1ccc(C(F)(F)F)cn1)N1CCC(c2nc(C3=NOC(c4c(Cl)cccc4Cl)C3)cs2)CC1 (stereo not shown) [Compound 47, 1-(4-(4-(5-(2,6-dichlorophenyl)-4,5-dihydroisoxazol-3-yl)thiazol-2-yl)piperidin-1-yl)-2-((5-(trifluoromethyl)pyridin-2-yl)oxy)ethan-1-one]	70%	
CS(=O)(=O)Oc1cccc(Cl)c1C1CC(c2csc(C3CCN(C(=O)COc4ccc(C(F)(F)F)cn4)CC3)n2)=NO1 (stereo not shown) [Compound 48, 3-chloro-2-(3-(2-(1-(2-((5-(trifluoromethyl)pyridin-2-yl)oxy)acetyl)piperidin-4-yl)thiazol-4-yl)-4,5-dihydroisoxazol-5-yl)phenyl methanesulfonate]	70%	
O=C(COc1ccc(C(F)(F)F)cn1)N1CCC(c2nc(C3=NOC(c4c(F)cccc4F)C3)cs2)CC1 (stereo not shown) [Compound 49, 1-(4-(4-(5-(2,6-difluorophenyl)-4,5-dihydroisoxazol-3-yl)thiazol-2-yl)piperidin-1-yl)-2-((5-(trifluoromethyl)pyridin-2-yl)oxy)ethan-1-one]	70%	
O=C(COc1ncc(C(F)(F)F)cc1Br)N1CCC(c2nc(C3=NOC(c4c(Cl)cccc4Cl)C3)cs2)CC1 (stereo not shown) [Compound 51, 2-((3-bromo-5-(trifluoromethyl)pyridin-2-yl)oxy)-1-(4-(4-(5-(2,6-dichlorophenyl)-4,5-dihydroisoxazol-3-yl)thiazol-2-yl)piperidin-1-yl)ethan-1-one]	70%	
O=C(COc1ncc(C(F)(F)F)cc1Br)N1CCC(c2nc(C3=NOC(c4c(F)cccc4F)C3)cs2)CC1 (stereo not shown) [Compound 53]		70%
O=C(COc1ncc(C(F)(F)F)cc1Br)N1CCC(c2nc(C3=NOC(c4c(Cl)cc(Cl)cc4Cl)C3)cs2)CC1 (stereo not shown) [Compound 54, 2-((3-bromo-5-(trifluoromethyl)pyridin-2-yl)oxy)-1-(4-(4-(5-(2,4,6-trichlorophenyl)-4,5-dihydroisoxazol-3-yl)thiazol-2-yl)piperidin-1-yl)ethan-1-one]	70%	

Compound	inhibition of growth at 30 ppm	control (radial growth) compared to the untreated check
O=C(COc1ncccc1C(F)(F)F)N1CCC(c2nc(C3OCc4ccccc4CO3)cs2)CC1 [Compound 59, 1-(4-(4-(1,5-dihydrobenzo[e][1,3]dioxepin-3-yl)thiazol-2-yl)piperidin-1-yl)-2-((3-(trifluoromethyl)pyridin-2-yl)oxy)ethan-1-one]	70%	
O=C(CSc1ncccc1C(F)(F)F)N1CCC(c2nc(C3=NOC(c4c(Cl)cc(Cl)cc4Cl)C3)cs2)CC1 (stereo not shown) [Compound 63]	70%	
O=C(CSc1ncc(C(F)(F)F)cc1Cl)N1CCC(c2nc(C3=NOC(c4c(F)cccc4F)C3)cs2)CC1 (stereo not shown) [Compound 65, 2-((3-chloro-5-(trifluoromethyl)pyridin-2-yl)thio)-1-(4-(4-(5-(2,6-difluorophenyl)-4,5-dihydroisoxazol-3-yl)thiazol-2-yl)piperidin-1-yl)ethan-1-one]	70%	
CN(C)C(N(CC(=O)N1CCC(c2nc(C3=NOC(c4c(F)cccc4F)C3)cs2)CC1)c1ccc(C(F)(F)F)cn1)=[N+](C)C (stereo not shown) [Compound 69]	70%	
O=C(COc1cccc(C(F)(F)F)n1)N1CCC(c2nc(C3=NOC(c4c(Cl)cccc4Cl)C3)cs2)CC1 (stereo not shown) [Compound 70, 1-(4-(4-(5-(2,6-dichlorophenyl)-4,5-dihydroisoxazol-3-yl)thiazol-2-yl)piperidin-1-yl)-2-((6-(trifluoromethyl)pyridin-2-yl)oxy)ethan-1-one]	70%	
CS(=O)(=O)Oc1cccc(Cl)c1C1CC(c2csc(C3CCN(C(=O)COc4cccc(C(F)(F)F)n4)CC3)n2)=NO1 (stereo not shown) [Compound 71, 3-chloro-2-(3-(2-(1-(2-((6-(trifluoromethyl)pyridin-2-yl)oxy)acetyl)piperidin-4-yl)thiazol-4-yl)-4,5-dihydroisoxazol-5-yl)phenyl methanesulfonate]	70%	
O=C(COc1cccc(C(F)(F)F)n1)N1CCC(c2nc(C3=NOC(c4c(F)cccc4F)C3)cs2)CC1 (stereo not shown) [Compound 72, 1-(4-(4-(5-(2,6-difluorophenyl)-4,5-dihydroisoxazol-3-yl)thiazol-2-yl)piperidin-1-yl)-2-((6-(trifluoromethyl)pyridin-2-yl)oxy)ethan-1-one]	70%	
Cc1cccnc1OCC(=O)N1CCC(c2nc(C3=NOC(c4c(Cl)cccc4OS(C)(=O)=O)C3)cs2)CC1 (stereo not shown) [Compound 78, 3-chloro-2-(3-(2-(1-(2-((3-methylpyridin-2-yl)oxy)acetyl)piperidin-4-yl)thiazol-4-yl)-4,5-dihydroisoxazol-5-yl)phenyl methanesulfonate]	70%	
O=C(CNc1ncccc1C(F)(F)F)N1CCC(c2nc(C3=NOC(c4c(Cl)cccc4Cl)C3)cs2)CC1 (stereo not shown) [Compound 82, 1-(4-(4-(5-(2,6-dichlorophenyl)-4,5-dihydroisoxazol-3-yl)thiazol-2-yl)piperidin-1-yl)-2-((3-(trifluoromethyl)pyridin-2-yl)amino)ethan-1-one]	70%	
Cc1cnc(OCC(=O)N2CCC(c3nc(C4=NOC(c5c(Cl)cc(Cl)cc5Cl)C4)cs3)CC2)c(C(F)(F)F)c1 (stereo not shown) [Compound 83, 2-((5-methyl-3-(trifluoromethyl)pyridin-2-yl)oxy)-1-(4-(4-(5-(2,4,6-trichlorophenyl)-4,5-dihydroisoxazol-3-yl)thiazol-2-yl)piperidin-1-yl)ethan-1-one]	70%	
Cc1cnc(OCC(=O)N2CCC(c3nc(C4=NOC(c5c(Cl)cccc5Cl)C4)cs3)CC2)c(C(F)(F)F)c1 (stereo not shown) [Compound 84, 1-(4-(4-(5-(2,6-dichlorophenyl)-4,5-dihydroisoxazol-3-yl)thiazol-2-yl)piperidin-1-yl)-2-((5-methyl-3-(trifluoromethyl)pyridin-2-yl)oxy)ethan-1-one]	70%	
Cc1cnc(OCC(=O)N2CCC(c3nc(C4=NOC(c5c(Cl)cccc5OS(C)(=O)=O)C4)cs3)CC2)c(C(F)(F)F)c1 (stereo not shown) [Compound 85, 3-chloro-2-(3-(2-(1-(2-((5-methyl-3-(trifluoromethyl)pyridin-2-yl)oxy)acetyl)piperidin-4-yl)thiazol-4-yl)-4,5-dihydroisoxazol-5-yl)phenyl methanesulfonate]	70%	
Cc1cnc(OCC(=O)N2CCC(c3nc(C4=NOC(c5c(F)cccc5F)C4)cs3)CC2)c(C(F)(F)F)c1 (stereo not shown) [Compound 88, 1-(4-(4-(5-(2,6-difluorophenyl)-4,5-dihydroisoxazol-3-yl)thiazol-2-yl)piperidin-1-yl)-2-((5-methyl-3-(trifluoromethyl)pyridin-2-yl)oxy)ethan-1-one]	70%	
CS(=O)(=O)Oc1cccc(Cl)c1C1CC(c2csc(C3CCN(C(=O)COc4ncccc4C(F)F)CC3)n2)=NO1 (stereo not shown) [Compound 89, 3-chloro-2-(3-(2-(1-(2-((3-(difluoromethyl)pyridin-2-yl)oxy)acetyl)piperidin-4-yl)thiazol-4-yl)-4,5-dihydroisoxazol-5-yl)phenyl methanesulfonate]	70%	
O=C(COc1ncccc1C(F)F)N1CCC(c2nc(C3=NOC(c4c(Cl)cccc4Cl)C3)cs2)CC1 (stereo not shown) [Compound 90]	70%	
